This note sets out measurements from patent US7541018B2, “Treatment process using somatostatin analogues” (University of Bern, priority 2001, dated 2009).

Experiment in all cases: Receptor autoradiography displacement of 125I-[Leu8,D-Trp22,Tyr25]-somatostatin 28 on membrane pellet sections
Holding throughout (type): binding
(In general: Displacement assays read how much labelled ligand stays bound in the presence of the test substance.)

The target in one assay is T1, human sst5 (Homo sapiens, UniProt P35346).
T1 construct: expressed in transfected cells; host or cells: CHO-K1
T1 sequence (P35346 whole entry): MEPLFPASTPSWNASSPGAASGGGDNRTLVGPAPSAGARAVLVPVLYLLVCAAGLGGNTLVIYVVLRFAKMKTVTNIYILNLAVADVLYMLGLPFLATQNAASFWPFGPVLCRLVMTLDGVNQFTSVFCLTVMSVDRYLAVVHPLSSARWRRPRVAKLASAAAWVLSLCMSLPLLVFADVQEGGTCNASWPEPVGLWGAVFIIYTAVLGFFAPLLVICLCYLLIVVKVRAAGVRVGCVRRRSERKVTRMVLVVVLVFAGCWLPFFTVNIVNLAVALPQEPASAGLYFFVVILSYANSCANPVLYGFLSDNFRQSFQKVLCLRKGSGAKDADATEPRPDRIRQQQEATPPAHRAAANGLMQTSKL
As to conditions: CHO-K1 cells stably expressing human sst5; sectioned membrane pellets; read-out: IC50 hsst5. As to the method: (§1) Cell culture CHO-K1 cells stably expressing human sst1 and sst5 were kindly provided by Drs. T. Reisine and G. Singh (University of Pennsylvania, Philadelphia, Pa.) and CCL39 cells stably expressing human sst2, sst3, and sst4 by Dr. D. Hoyer (Novartis Pharma, Basel, Switzerland).
(§2) CHO-K1 cells were grown in Ham's F-12 medium and CCL39 cells in Dulbecco's modified Eagle's medium/Ham's F-12 (1:1) mix, supplemented with 10% fetal bovine serum, 100 μg/mL penicillin and 100 μg/mL streptomycin, in humidified air containing 5% CO2 at 37° C. Geneticin (G418-sulfate; Gibco, USA) was used where necessary to maintain selection pressure at a final concentration of 400 μg/mL for sst2 to sst4—and 285 μg/mL for sst5—expressing cells as described previously (Rens-Domiano S. & Reisine T., Biochemical and functional properties of somatostatin receptors, J. Neurochem., 58:1987-1996 (1992); O'Caroll A. et al., Characterization of cloned human somatostatin receptor SSTR5, Molec. Pharmacol., 46:291-298 (1994); Siehler S. et al., [^125I]Tyr^10-cortistatin14 labels all five somatostatin receptors, Naunyn-Schmiedeberg's Arch. Pharmacol., 357:483-489 (1998).).
(§3) Cells were washed twice with and scraped into ice-cold 0.05 M Tris-CHl (pH 7.4), collected by centrifugation, and homogenized using a rotor/stator slash system (POLYTRON®, Kinematica Inc., Littau, Switzerland) in the same buffer. After centrifugation at 120 g for 5 min at 4° C., the supernatant was collected and centrifuged again at 48,000 g for 30 min at 4° C. The resulting pellet was re-suspended in ice-cold Tris buffer, transferred into a microfuge tube, and centrifuged at 20,000 g for 15 min at 4° C. After withdrawal of the supernatant, the membrane pellet was stored at −80° C.
(§4) Receptor autoradiography was performed on 20 μm thick cryostat (Leitz 1720, Rockleigh, N.J.) sections of the membrane pellets, mounted on microscope slides, and then stored at −20° C.
(§5) IC50 values were calculated after quantification of the data using a computer-assisted image processing system as described previously (Reubi, J. C. et al., Detection of somatostatin receptors in surgical and percutaneous needle biopsy samples of carcinoids and islet cell carcinomas, Cancer Res. 50: 5969-5977 (1990).). Tissue standards (Autoradiographic [^125I] microscales, Amersham) that contain known amounts of isotope, cross-calibrated to tissue-equivalent ligand concentrations were used for quantification (Reubi, J. C., In vitro identification of vasoactive intestinal peptide receptors in human tumors: Implications for tumor imaging, J. Nucl. Med. 36: 1846-1853 (1995).).

Another assay addresses T2, human sst4 (Homo sapiens, UniProt P31391).
T2 construct: expressed in transfected cells; host or cells: CCL39
As to conditions: CCL39 cells stably expressing human sst4; sectioned membrane pellets; read-out: IC50 hsst4. As to the method: as §1, §2, §3, §4, §5

The next assay has as its target T3, human sst1 (Homo sapiens, UniProt P30872).
T3 construct: expressed in transfected cells; host or cells: CHO-K1
As to conditions: CHO-K1 cells stably expressing human sst1; sectioned membrane pellets; read-out: IC50 hsst1. As to the method:
as §1, §2, §3, §4, §5

For a further assay, the target named is T4, human sst3 (Homo sapiens, UniProt P32745).
T4 construct: expressed in transfected cells; host or cells: CCL39
T4 sequence (P32745 whole entry): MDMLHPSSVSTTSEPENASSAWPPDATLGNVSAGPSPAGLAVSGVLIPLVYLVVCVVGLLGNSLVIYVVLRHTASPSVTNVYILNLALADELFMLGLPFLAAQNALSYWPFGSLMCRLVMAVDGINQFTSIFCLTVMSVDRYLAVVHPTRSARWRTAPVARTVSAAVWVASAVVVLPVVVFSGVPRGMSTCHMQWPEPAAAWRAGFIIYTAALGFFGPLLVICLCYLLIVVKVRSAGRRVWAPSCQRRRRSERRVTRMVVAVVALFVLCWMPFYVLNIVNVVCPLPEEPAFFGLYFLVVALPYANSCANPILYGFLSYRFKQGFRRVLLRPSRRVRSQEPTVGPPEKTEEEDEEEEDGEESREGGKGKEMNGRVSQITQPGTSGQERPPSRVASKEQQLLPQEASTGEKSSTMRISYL
As to conditions: CCL39 cells stably expressing human sst3; sectioned membrane pellets; read-out: IC50 hsst3. As to the method:
as §1, §2, §3, §4, §5

The next assay concerns the target T5, human sst2 (Homo sapiens, UniProt P30874).
T5 construct: expressed in transfected cells; host or cells: CCL39
As to conditions: CCL39 cells stably expressing human sst2; sectioned membrane pellets; read-out: IC50 hsst2. On the procedure: as §1, §2, §3, §4, §5

Bridge positions count the residues as written; N and C are the ends. Square brackets hold non-standard residues; d marks the D form. Peptide text beside a SMILES is read from it. * marks the point of attachment. DOTA = O=C(O)CN1CCN(CC(=O)O)CCN(CC(=O)*)CCN(CC(=O)O)CC1; dDab = NCC[C@@H](N)C(=O)O; GABA = NCCCC(=O)O

T2 sequence (P31391 whole entry): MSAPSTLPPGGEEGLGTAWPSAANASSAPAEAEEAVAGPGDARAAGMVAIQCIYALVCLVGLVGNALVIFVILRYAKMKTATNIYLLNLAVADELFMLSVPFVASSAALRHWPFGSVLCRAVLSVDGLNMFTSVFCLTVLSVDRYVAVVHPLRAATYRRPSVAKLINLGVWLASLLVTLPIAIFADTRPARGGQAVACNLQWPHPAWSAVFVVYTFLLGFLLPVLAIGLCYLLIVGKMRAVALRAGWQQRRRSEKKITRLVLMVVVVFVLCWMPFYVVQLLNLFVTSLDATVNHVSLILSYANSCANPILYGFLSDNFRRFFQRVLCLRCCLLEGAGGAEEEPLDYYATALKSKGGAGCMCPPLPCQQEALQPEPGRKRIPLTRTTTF
T3 sequence (P30872 whole entry): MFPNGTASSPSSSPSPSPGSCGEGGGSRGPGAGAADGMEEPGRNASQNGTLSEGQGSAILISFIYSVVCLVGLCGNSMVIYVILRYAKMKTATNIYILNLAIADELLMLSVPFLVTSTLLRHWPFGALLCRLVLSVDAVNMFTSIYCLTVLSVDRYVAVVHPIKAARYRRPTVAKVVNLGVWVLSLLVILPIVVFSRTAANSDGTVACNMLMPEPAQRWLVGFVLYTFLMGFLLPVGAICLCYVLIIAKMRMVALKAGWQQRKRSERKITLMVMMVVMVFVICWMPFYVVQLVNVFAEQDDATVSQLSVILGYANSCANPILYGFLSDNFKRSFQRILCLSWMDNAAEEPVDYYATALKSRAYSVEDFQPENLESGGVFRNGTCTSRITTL
T5 sequence (P30874 whole entry): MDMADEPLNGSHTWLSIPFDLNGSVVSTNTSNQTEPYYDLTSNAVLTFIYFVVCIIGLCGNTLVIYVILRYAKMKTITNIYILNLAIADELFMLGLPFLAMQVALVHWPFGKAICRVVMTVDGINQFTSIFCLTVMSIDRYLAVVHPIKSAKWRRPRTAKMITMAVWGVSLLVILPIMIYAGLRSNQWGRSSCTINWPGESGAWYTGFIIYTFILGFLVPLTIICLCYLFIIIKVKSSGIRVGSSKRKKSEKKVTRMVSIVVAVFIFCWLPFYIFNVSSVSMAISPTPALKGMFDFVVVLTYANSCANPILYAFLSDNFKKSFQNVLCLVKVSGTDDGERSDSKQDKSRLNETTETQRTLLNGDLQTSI

Consider `C[C@@H](O)[C@@H]1NC(=O)[C@H](CCCCN)NC(=O)[C@@H](Cc2c[nH]c3ccccc23)NC(=O)[C@H](Cc2ccccc2)NC(=O)[C@H](Cc2ccccc2)NC(=O)[C@H](CC(N)=O)NC(=O)CCCNC(=O)[C@H](Cc2ccccc2)NC1=O` [minisomatostatin, reference compound] (cyclo(FF[dW]KTF[GABA]N)), for which the concentration for half-maximal inhibition (IC50) – broadly, the concentration that gives 50% inhibition – at human sst5 stood at 6.8 nM; at human sst4, 15.3 nM; at human sst1, 172 nM; on human sst3, 3.2 nM.
In the case of `C[C@@H](O)[C@@H]1NC(=O)[C@H](CCCCN)NC(=O)[C@@H](Cc2c[nH]c3ccccc23)NC(=O)[C@H](Cc2ccc(O)cc2)NC(=O)[C@H](Cc2ccccc2)NC(=O)[C@H](CCCNC(=N)N)NC(=O)[C@H](N)CCNC(=O)[C@H](Cc2ccccc2)NC1=O` [A with X4 is Tyr] (H-[dDab]RFY[dW]KTF; lactam 1-C), the IC50 at human sst2 is 2.9 nM; on human sst5, 0.8 nM; on human sst4 it was 1 nM; at human sst1, 24.5 nM; on human sst3, 2 nM.
Turning to `C[C@@H](O)[C@@H]1NC(=O)[C@H](CCCCN)NC(=O)[C@@H](Cc2c[nH]c3ccccc23)NC(=O)[C@H](Cc2ccccc2)NC(=O)[C@H](Cc2ccccc2)NC(=O)[C@H](CCCNC(=N)N)NC(=O)[C@H](NC(=O)CN2CCN(CC(=O)O)CCN(CC(=O)O)CCN(CC(=O)O)CC2)CCNC(=O)[C@H](Cc2ccccc2)NC1=O` [A, Z = DOTA] ({DOTA}-[dDab]RFF[dW]KTF; lactam 1-C), the concentration for half-maximal inhibition (IC50) on human sst2 is 3 nM; on human sst5, 0.8 nM; at human sst4 it was 0.9 nM; at human sst1, 7.6 nM; at human sst3, 1.6 nM.
As for `C[C@@H](O)[C@@H]1NC(=O)[C@H](CCCCN)NC(=O)[C@@H](Cc2c[nH]c3ccccc23)NC(=O)[C@H](Cc2ccc(O)cc2)NC(=O)[C@H](Cc2ccccc2)NC(=O)[C@H](CCCNC(=N)N)NC(=O)CCCNC(=O)[C@H](Cc2ccccc2)NC1=O` [A with X4 is Tyr and X1 is GABA] (cyclo(F[GABA]RFY[dW]KT); ring closure inferred), the IC50 on human sst5 turned out to be 0.57 nM; at human sst4 it was 0.68 nM; at human sst1, 10.5 nM; on human sst3 it was 1.7 nM.
